Results reported in PubChem BioAssay AID1259407 (Chemical Carcinogenesis Research Information System (CCRIS), 2018).
Calls of active or inactive are those of the source. No rule for the calls is given here.

Tested on: CCRIS mutagenicity, Ames/micronucleus/aberration tests
Assay: CCRIS mutagenicity studies
[1] = Test System: AMES SALMONELLA TYPHIMURIUM, Strain/Indicator: TA98, Metabolic Activation: NONE, Method: STANDARD PLATE
[2] = Test System: AMES SALMONELLA TYPHIMURIUM, Strain/Indicator: TA100, Metabolic Activation: NONE, Method: PREINCUBATION
[3] = Test System: AMES SALMONELLA TYPHIMURIUM, Strain/Indicator: TA100, Metabolic Activation: NONE, Method: STANDARD PLATE

Cc1ccc(O)c(N)c1 was tested, and the mutagenic call (Test System: AMES SALMONELLA TYPHIMURIUM, Strain/Indicator: TA97, Metabolic Activation: HAMSTER, LIVER, S-9, AROCLOR 1254 (10%), Method: PREINCUBATION) was “inactive; negative”, the mutagenic call (Test System: AMES SALMONELLA TYPHIMURIUM, Strain/Indicator: TA97, Metabolic Activation: NONE, Method: PREINCUBATION) was “active; positive” and the mutagenic call (Test System: AMES SALMONELLA TYPHIMURIUM, Strain/Indicator: TA97, Metabolic Activation: RAT, LIVER, S-9, AROCLOR 1254 (10%), Method: PREINCUBATION) was “inactive; negative”. The mutagenic call (Test System: AMES SALMONELLA TYPHIMURIUM, Strain/Indicator: TA98, Metabolic Activation: HAMSTER LIVER S-9, AROCLOR 1254, Method: STANDARD PLATE) was “inactive; negative”, the mutagenic call (Test System: AMES SALMONELLA TYPHIMURIUM, Strain/Indicator: TA98, Metabolic Activation: HAMSTER, LIVER, S-9, AROCLOR 1254 (10%), Method: PREINCUBATION) was “inactive; negative” and the mutagenic call (Test System: AMES SALMONELLA TYPHIMURIUM, Strain/Indicator: TA98, Metabolic Activation: NONE, Method: PREINCUBATION) was “inactive; negative”. For the same molecule, the mutagenic call [1] was “inactive; negative”, the mutagenic call (Test System: AMES SALMONELLA TYPHIMURIUM, Strain/Indicator: TA98, Metabolic Activation: RAT LIVER S-9, AROCLOR 1254, Method: STANDARD PLATE) was “inactive; negative” and the mutagenic call (Test System: AMES SALMONELLA TYPHIMURIUM, Strain/Indicator: TA98, Metabolic Activation: RAT, LIVER, S-9, AROCLOR 1254 (10%), Method: PREINCUBATION) was “inactive; negative”. The mutagenic call (Test System: AMES SALMONELLA TYPHIMURIUM, Strain/Indicator: TA100, Metabolic Activation: HAMSTER LIVER S-9, AROCLOR 1254, Method: STANDARD PLATE) was “inactive; negative”, the mutagenic call (Test System: AMES SALMONELLA TYPHIMURIUM, Strain/Indicator: TA100, Metabolic Activation: HAMSTER, LIVER, S-9, AROCLOR 1254 (10%), Method: PREINCUBATION) was “active; positive” and the mutagenic call [2] was “active; positive”. The mutagenic call [3] was “inactive; negative”, the mutagenic call (Test System: AMES SALMONELLA TYPHIMURIUM, Strain/Indicator: TA100, Metabolic Activation: RAT LIVER S-9, AROCLOR 1254, Method: STANDARD PLATE) was “inactive; negative” and the mutagenic call (Test System: AMES SALMONELLA TYPHIMURIUM, Strain/Indicator: TA100, Metabolic Activation: RAT, LIVER, S-9, AROCLOR 1254 (10%), Method: PREINCUBATION) was “active; positive”. The mutagenic call (Test System: AMES SALMONELLA TYPHIMURIUM, Strain/Indicator: TA1535, Metabolic Activation: HAMSTER LIVER S-9, AROCLOR 1254, Method: STANDARD PLATE) was “inactive; negative”, the mutagenic call (Test System: AMES SALMONELLA TYPHIMURIUM, Strain/Indicator: TA1535, Metabolic Activation: HAMSTER, LIVER, S-9, AROCLOR 1254 (10%), Method: PREINCUBATION) was “inactive; negative” and the mutagenic call (Test System: AMES SALMONELLA TYPHIMURIUM, Strain/Indicator: TA1535, Metabolic Activation: NONE, Method: PREINCUBATION) was “inactive; negative”. The mutagenic call (Test System: AMES SALMONELLA TYPHIMURIUM, Strain/Indicator: TA1535, Metabolic Activation: NONE, Method: STANDARD PLATE) was “inactive; negative”, the mutagenic call (Test System: AMES SALMONELLA TYPHIMURIUM, Strain/Indicator: TA1535, Metabolic Activation: RAT LIVER S-9, AROCLOR 1254, Method: STANDARD PLATE) was “inactive; negative” and the mutagenic call (Test System: AMES SALMONELLA TYPHIMURIUM, Strain/Indicator: TA1535, Metabolic Activation: RAT, LIVER, S-9, AROCLOR 1254 (10%), Method: PREINCUBATION) was “inactive; negative”. The mutagenic call (Test System: AMES SALMONELLA TYPHIMURIUM, Strain/Indicator: TA1537, Metabolic Activation: HAMSTER LIVER S-9, AROCLOR 1254, Method: STANDARD PLATE) was “inactive; negative”, the mutagenic call (Test System: AMES SALMONELLA TYPHIMURIUM, Strain/Indicator: TA1537, Metabolic Activation: NONE, Method: STANDARD PLATE) was “inactive; negative” and the mutagenic call (Test System: AMES SALMONELLA TYPHIMURIUM, Strain/Indicator: TA1537, Metabolic Activation: RAT LIVER S-9, AROCLOR 1254, Method: STANDARD PLATE) was “inactive; negative”. For the same molecule, the mutagenic call (Test System: AMES SALMONELLA TYPHIMURIUM, Strain/Indicator: TA1538, Metabolic Activation: HAMSTER LIVER S-9, AROCLOR 1254, Method: STANDARD PLATE) was “inactive; negative”, the mutagenic call (Test System: AMES SALMONELLA TYPHIMURIUM, Strain/Indicator: TA1538, Metabolic Activation: NONE, Method: STANDARD PLATE) was “inactive; negative” and the mutagenic call (Test System: AMES SALMONELLA TYPHIMURIUM, Strain/Indicator: TA1538, Metabolic Activation: RAT LIVER S-9, AROCLOR 1254, Method: STANDARD PLATE) was “inactive; negative”. For the same molecule, the mutagenic call (Test System: MOUSE LYMPHOMA, Strain/Indicator: L5178Y (TK+/TK-), Metabolic Activation: NONE, Method: SUSPENSION/PLATE) was “active; positive. reevaluation of results: positive” and the mutagenic call (Test System: MOUSE LYMPHOMA, Strain/Indicator: L5178Y (TK+/TK-), Metabolic Activation: RAT, LIVER, S-9, AROCLOR 1254, Method: SUSPENSION/PLATE) was “active; positive. reevaluation of results: positive”.

With Nc1nc2c(ncn2COC(CO)CO)c(=O)[nH]1 the mutagenic call (End Point: IN VITRO CHROMOSOMAL ABERRATIONS, Test System: CHO CELLS (CHO-HSVTK), Metabolic Activation: NONE) was “active; positive (structural changes); concentration chosen also induced apoptosis”.

In the case of COC(=O)C1=CCCN(C)C1, the mutagenic call [1] is reported as “inactive; negative”, the mutagenic call (Test System: AMES SALMONELLA TYPHIMURIUM, Strain/Indicator: TA98, Metabolic Activation: RAT, LIVER, S-9, Method: STANDARD PLATE) is reported as “inactive; negative” and the mutagenic call [3] is reported as “active; positive”. For the same molecule, the mutagenic call (Test System: AMES SALMONELLA TYPHIMURIUM, Strain/Indicator: TA100, Metabolic Activation: RAT, LIVER, S-9, Method: STANDARD PLATE) was “active; positive”.

With O=C1CC(O)C(O)c2ccc3c4c(ccc3c21)CCC4 (stereo not given) the mutagenic call (Test System: AMES SALMONELLA TYPHIMURIUM, Strain/Indicator: TA100, Metabolic Activation: RAT, LIVER, MICROSOMES, 15,16-DIHYDROCYCLOPENTA[A]PHENANTHREN-17-ONE, Method: STANDARD PLATE) was “inactive; negative”, the mutagenic call (Test System: AMES SALMONELLA TYPHIMURIUM, Strain/Indicator: TA100, Metabolic Activation: RAT, LIVER, MICROSOMES, AROCLOR 1254, Method: STANDARD PLATE) was “active; positive” and the mutagenic call (Test System: AMES SALMONELLA TYPHIMURIUM, Strain/Indicator: TA100, Metabolic Activation: RAT, LIVER, MICROSOMES, BENZO[A]PYRENE, Method: STANDARD PLATE) was “active; positive”. The mutagenic call (Test System: AMES SALMONELLA TYPHIMURIUM, Strain/Indicator: TA100, Metabolic Activation: RAT, LIVER, MICROSOMES, CLOFIBRATE, Method: STANDARD PLATE) was “inactive; negative”, the mutagenic call (Test System: AMES SALMONELLA TYPHIMURIUM, Strain/Indicator: TA100, Metabolic Activation: RAT, LIVER, MICROSOMES, DEXAMETHASONE, Method: STANDARD PLATE) was “inactive; negative” and the mutagenic call (Test System: AMES SALMONELLA TYPHIMURIUM, Strain/Indicator: TA100, Metabolic Activation: RAT, LIVER, MICROSOMES, ISONIAZID, Method: STANDARD PLATE) was “inactive; negative”. The mutagenic call (Test System: AMES SALMONELLA TYPHIMURIUM, Strain/Indicator: TA100, Metabolic Activation: RAT, LIVER, MICROSOMES, PHENOBARBITONE, Method: STANDARD PLATE) was “inactive; negative”.

With CNC(=O)N(C)C(=O)ON the mutagenic call [1] was “active; positive” and the mutagenic call [3] was “active; positive”.

In the case of Cl[C@@H]1O[C@@H]1CBr, the mutagenic call [2] is reported as “active; positive”.

In the case of COc1cccc2c1C(=O)c1c(O)c3c(c(O)c1C2=O)C[C@@](O)(C(C)=NNC(=O)c1ccccc1)C[C@@H]3O[C@H]1C[C@H](N)[C@H](O)[C@H](C)O1, the mutagenic call (Test System: AMES SALMONELLA TYPHIMURIUM, Strain/Indicator: TA97, Metabolic Activation: NONE, Method: STANDARD PLATE) is reported as “inactive; negative”, the mutagenic call [1] is reported as “active; positive” and the mutagenic call [3] is reported as “inactive; negative”. The mutagenic call (Test System: AMES SALMONELLA TYPHIMURIUM, Strain/Indicator: TA104, Metabolic Activation: NONE, Method: STANDARD PLATE) was “inactive; negative” and the mutagenic call (Test System: AMES SALMONELLA TYPHIMURIUM, Strain/Indicator: TA2637, Metabolic Activation: NONE, Method: STANDARD PLATE) was “active; positive”.

NC(=O)C1(C(N)=O)OC1C(=O)c1ccccc1 (stereo not given) was tested, and the mutagenic call (Test System: AMES SALMONELLA TYPHIMURIUM, Strain/Indicator: TA98, Metabolic Activation: NONE, Method: DISK ASSAY) was “inactive; negative”, the mutagenic call [1] was “inactive; negative” and the mutagenic call (Test System: AMES SALMONELLA TYPHIMURIUM, Strain/Indicator: TA98, Metabolic Activation: RAT, LIVER, S-9, AROCLOR 1254, Method: DISK ASSAY) was “inactive; negative”. For the same molecule, the mutagenic call (Test System: AMES SALMONELLA TYPHIMURIUM, Strain/Indicator: TA98, Metabolic Activation: RAT, LIVER, S-9, AROCLOR 1254, Method: STANDARD PLATE) was “active; positive”, the mutagenic call [3] was “inactive; negative” and the mutagenic call (Test System: AMES SALMONELLA TYPHIMURIUM, Strain/Indicator: TA100, Metabolic Activation: RAT, LIVER, S-9, AROCLOR 1254, Method: STANDARD PLATE) was “inactive; negative”.
